According to patent US20120264611A1, “Pesticide Preparations Containing Derivatives Of Pyrrolidone-4-Carboxylic Acid” (CLARIANT FINANCE (BVI) LIMITED, priority 2009, published 2012):

Legend:
[1] = test system: tomato plants (cv. Astona F1); assay: Determination of phytotoxicity on tomato plants (auxiliaries sprayed without pesticide); assay type: in vivo
Protocol: The phytotoxicity is determined on tomato plants (cv. Astona F1), a species which, as is known, is sensitive to phytotoxic substances taken up via the leaf surface (“Phototoxicity of different classes of adjuvants”, H. de Ruiter, et al., Proceedings Fifth International Symposium on Adjuvants for Agrochemicals, 1998, Ed. P. McMullan, pp. 204-209).
Tomato plants (cv. Astona F1) are cultivated in a greenhouse under 14-hour light irradiation at a temperature of 18/12 (±0.5)° C. (day/night) and a relative atmospheric humidity of 70/80 (±5) % (day/night). 12 days after germination, the seedlings are transplanted into plastic pots having a diameter of 11 cm (one plant per pot) filled with a mixture of sand and soil (Soil No. 12, Colent b.v., Lent, the Netherlands) in a volume ratio of sand:soil=1:2.
The pots are placed on a subirrigation mat which was moistened daily with a nutrient solution of medium strength.
28 days after sowing, the plants were treated at the 4-leaf stage, each plant having a height of 15-17 cm. The auxiliary content of the spray solution was 0.5% (v/v or % by volume).
The spray solutions are applied to the plants using an air pressure-operated laboratory sprayer such that the resulting application rate is 200 l/ha.
The treated plants are scored visually after 2 and 8 days (DAT; DAT: days after treatment) and evaluated using a qualitative scale (1 to 5). Here, 1=no discoloration or necrosis of the leaves to 5=complete necrosis of the treated leaf surface. Moreover, the above-ground plant mass is determined after 8 days (fresh weight). In each case, the average is calculated, based on the number of treated plants.

[2] = test system: Wild oats (Avena fatua, AVEFA); assay: Increase of the biological activity of glyphosate by adjuvants, greenhouse trial (tank mix method); assay type: in vivo; settings: 21 days
Text: Here, 50% strength solutions are used. In the case of compound 1, triethanolamine is additionally added to dissolve the acid.
By mixing these tank mix solutions with a commercial aqueous solution of glyphosate isopropylammonium (comprising 62% by weight of the active compound glyphosate IPA salt; IPA: isopropylammonium) and further addition of water, a preparation according to the invention is formed. The ratio of glyphosate (based on the acid equivalent) to adjuvant corresponds to that which is also found in commercially available glyphosate formulations.
For easier monitoring of the adjuvant effects, reduced doses of glyphosate are used; the application rate is 135.2 g a.e./ha glyphosate IPA salt (corresponding to 4.0 mmol or 0.68 g a.e./l at a liquid volume of 200 l/ha). The abbreviation “a.e.” means “acid equivalent”.
The spray solutions comprise the following concentrations of adjuvant: 0.0141% (v/v).
Wild oats (Avena fatua, AVEFA) are cultivated in a greenhouse under 14 hours of light irradiation at a temperature of 18/12 (±0.5)° C. (day/night) and a relative atmospheric humidity of 70/80 (±5) % (day/night). Light is introduced via high-pressure mercury lamps and fluorescent tubes, resulting in a power of 70 W/m^2 (PAR; PAR: photosynthetically active radiation (400-700 nm)) on the leaf level. The plants are cultivated in plastic pots having a diameter of 11 cm, filled with a mixture of sand and soil (Soil No. 12, Colent b.v., Lent, the Netherlands) in a volume ratio of sand:soil=1:2.
The pots are placed on a subirrigation mat which is moistened daily with a nutrient solution of medium strength. After emergence, the AVEFA seedlings are divided into six plants per pot for the activity tests.
The spray solutions are used to carry out greenhouse trials. The effect of the adjuvants on the efficacy of glyphosate is tested.
The spray solutions are applied to the plants using an air pressure-operated laboratory sprayer, such that an application rate of 200 l/ha results.
Wild oats (AVEFA) are treated once they have reached the 2-3 leaf stage.
The efficacy of the herbicide is assessed after 21 days. To this end, the mass of the remaining above-ground plant parts (fresh weight (FW) in gram) is determined. This is shown in table 3, together with the calculated relative residual amount, compared to the untreated plant (in % by weight).

Row | Compound | Visual evaluation (DAT 2) ([1]; 2 days after treatment, qualitative scale 1 (no discoloration or necrosis of the leaves) to 5 (complete necrosis of treated leaf surface), average, auxiliary 0.5% (v/v), 200 l/ha, no pesticide) | Visual evaluation (DAT 8) ([1]; 8 days after treatment, qualitative scale 1 (no discoloration or necrosis of the leaves) to 5 (complete necrosis of treated leaf surface), average, auxiliary 0.5% (v/v), 200 l/ha, no pesticide) | Fresh weight ([1]; above-ground plant mass after 8 days, average, auxiliary 0.5% (v/v), 200 l/ha, untreated 8.6 g) [g] | Mass of the plants formed compared to the untreated plant (in words) ([1]; summary of table 2, after 8 days) | Phytotoxic reaction of the tomato plants (in words) ([1]; summary of table 2, auxiliary 0.5% (v/v)) | Test 1, fresh weight of remaining above-ground plant parts ([2]; glyphosate IPA salt 135.2 g a.e./ha, adjuvant 0.0141% (v/v), 200 l/ha, untreated 11.26) [g FW] | Mean of tests 1 and 2 ([2]; glyphosate IPA salt 135.2 g a.e./ha, adjuvant 0.0141% (v/v), 200 l/ha, untreated 12.97) [g FW] | Test 2, fresh weight of remaining above-ground plant parts ([2]; glyphosate IPA salt 135.2 g a.e./ha, adjuvant 0.0141% (v/v), 200 l/ha, untreated 14.67) [g FW] | Residual amount ([2]; calculated relative residual amount compared to the untreated plant (100)) [% by weight]
1 | CCCCCCCC/C=C\CCCCCCCCN1CC(C(=O)O)CC1=O (stereo not drawn) [Compound 1, N-oleyl-2-pyrrolidone-4-carboxylic acid] | 1.1 | 1.5 | 8.6 | not reduced | at most minimal signs of a phytotoxic reaction |  |  |  | 
2 | O=C(O)CNCP(=O)(O)O [Glyphosate, no adjuvant added, glyphosate isopropylammonium] |  |  |  |  |  | 9.63 | 11.54 | 13.45 | 89
